Like-named read-outs stand apart in the source and are kept apart here.
What was measured:
CDK1 (p34 cdc2)/cyclin B = assay: CDK inhibition assay (histone H1 kinase), CDK1; format: biochemical, starfish (Marthasterias glacialis); settings: for IC50: CDK1; for IC50 / effect of side chain at N9 or N7, or halo at C2, on activity: Table 1; for effect of side chain at N9 or N7, or halo at C2, on activity: in words; for % inhibition CDK1: at 100 μM
Description: (§1) By way of example, however, a typical protocol is summarised below.
Histone H1 (type III-S (Sigma) 4° C.) 5 mg/ml in buffer C.
[^32 P]ATP […]: Make up using (multiples of) the following proportions:
DMSO cannot exceed 1% in the assay mixture. Inhibitors are added at 1/10 final assay volume and 10×final strength. DMSO stocks must therefore be diluted to 10×final desired concentration in ≤10% DMSO, ≥90% buffer C.
Start reaction in each tube at 30 second intervals by adding
5 ml [^32 P]ATP vortexing and placing in rack in waterbath at 30° C.
Terminate reaction after 10 min at 30 second intervals in tubes in same order by removing
25 ml reaction mix and spotting onto appropriately labelled filter, allowing to dry for 20-30 seconds and transferring to stirring 1% phosphoric acid.
Blank incubation is performed as above but without histone (add […] buffer C instead) Washing blank is […] ATP added directly to filter.

CDK2 = CDK2 (Homo sapiens, UniProt P24941); assay: CDK inhibition assay, CDK2; format: biochemical
Description: (§2) Apart from reference compounds, the compounds listed are accompanied by an NU reference or identification code number.
as §1

CDK4 = CDK4 (Homo sapiens, UniProt P11802); assay: CDK inhibition assay, CDK4; format: biochemical; settings: CDK4; Table 1; read-out: IC50 CDK4
Description: as §2, §1

[1] = read-out: % inhibition CDK2, at 100 μM
[2] = at 100 μM, read-out: % inhibition CDK2

Sequence of CDK4 (P11802 whole entry, species assumed): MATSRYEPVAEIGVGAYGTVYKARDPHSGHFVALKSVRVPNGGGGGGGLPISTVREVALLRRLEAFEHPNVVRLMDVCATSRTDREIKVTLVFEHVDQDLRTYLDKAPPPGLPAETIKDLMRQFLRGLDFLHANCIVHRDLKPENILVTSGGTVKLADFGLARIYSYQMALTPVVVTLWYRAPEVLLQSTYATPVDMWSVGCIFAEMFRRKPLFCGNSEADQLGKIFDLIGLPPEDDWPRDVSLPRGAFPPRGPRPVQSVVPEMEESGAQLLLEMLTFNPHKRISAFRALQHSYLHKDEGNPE
Sequence of CDK4 (P24385 whole entry partner, species assumed): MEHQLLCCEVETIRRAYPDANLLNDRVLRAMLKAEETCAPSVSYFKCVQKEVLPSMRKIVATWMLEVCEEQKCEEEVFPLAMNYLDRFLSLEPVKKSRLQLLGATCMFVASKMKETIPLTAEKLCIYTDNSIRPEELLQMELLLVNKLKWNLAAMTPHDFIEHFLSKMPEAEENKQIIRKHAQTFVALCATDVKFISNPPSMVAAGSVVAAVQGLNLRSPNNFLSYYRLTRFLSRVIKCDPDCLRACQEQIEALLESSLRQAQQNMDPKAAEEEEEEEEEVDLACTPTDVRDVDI

| SMILES | IC50 (CDK1 (p34 cdc2)/cyclin B) | also measured |
| --- | --- | --- |
| Nc1nc(OCc2ccco2)c2nc[nH]c2n1 [2-amino-6-(2-furanyl)-methyloxypurine] | 75 µM |  |
| c1ccc(COc2ncnc3nc[nH]c23)cc1 [NU2002, 6-Benzyloxypurine] | 51 µM |  |
| COc1nc(N)nc2nc[nH]c12 [NU2004, 2-amino-6-methoxypurine] | 200 µM |  |
| C=CCOc1ncnc2nc[nH]c12 [NU2013, 6-Allyloxypurine] | 110 µM |  |
| c1nc(OCC2CCCCO2)c2[nH]cnc2n1 (stereo not shown) [NU2014, 6-(2-tetrahydropyranyl-methyloxy)purine] | > 100 µM |  |
| c1nc(OCC2CCCCC2)c2[nH]cnc2n1 [NU2017, 6-cyclohexylmethoxypurine] | 16 µM | IC50 (CDK2; CDK2, Table 1, read-out: IC50 CDK2): 15.5 µM; inhibition at 100 µM (CDK2; [1]): 61 ± 2% |
| c1ccc(CCOc2ncnc3nc[nH]c23)cc1 [NU2023, 6-(2-Phenylethyloxy)purine] | 130 µM |  |
| C=CCOc1nc(N)nc2nc[nH]c12 [NU2028, 2-amino-6-allyloxypurine] | 50 µM | IC50 (CDK4): > 100 µM |
| C#CCOc1nc(N)nc2[nH]cnc12 [NU2031, O^6 -Propargylguanine] | 60 µM |  |
| CCOC(C)(COc1nc(N)nc2[nH]cnc12)OCC [NU2032, 2-amino-6-(2,2-diethoxy) propoxypurine] | > 100 µM |  |
| Nc1nc(OCC(=O)c2ccccc2)c2nc[nH]c2n1 [NU2033, O^6-(2-Oxo-2-phenylethyl)guanine] | 100 µM |  |
| C=C(C)COc1nc(N)nc2[nH]cnc12 [NU2034, O^6-(2-Methylallyl)guanine] | 32 µM |  |
| CC(=O)COc1nc(N)nc2[nH]cnc12 [NU2035, O^6-(2-Oxopropyl)guanine] | 100 µM |  |
| C=CCOc1nc(N)nc2c1ncn2CC=C [NU2036, N^9,O^6 -Diallylguanine] | > 1000 µM | effect of side chain at N9 or N7, or halo at C2, on activity (CDK1 (p34 cdc2)/cyclin B): activity drastically diminishes |
| C=CCOc1nc(N)nc2ncn(CC=C)c12 [NU2037, N^7,O^6 -Diallylguanine] | > 1000 µM | effect of side chain at N9 or N7, or halo at C2, on activity (CDK1 (p34 cdc2)/cyclin B): activity drastically diminishes |
| C=CCOc1nc(N)nc2c1ncn2Cc1ccccc1 [NU2038, O^6 -Allyl-N^9 -benzylguanine] | > 1000 µM | effect of side chain at N9 or N7, or halo at C2, on activity (CDK1 (p34 cdc2)/cyclin B): activity drastically diminishes |

| SMILES | IC50 (CDK1 (p34 cdc2)/cyclin B) | also measured |
| --- | --- | --- |
| Nc1nc(OCC(O)CO)c2nc[nH]c2n1 (stereo not shown) [NU2040, 2-amino-6-(2,3-dihydroxy) propoxypurine] | > 100 µM |  |
| Nc1nc(OCCc2ccccc2)c2nc[nH]c2n1 [NU2041, O^6-(2-Phenylethyl)guanine] | 100 µM |  |
| CCCCOc1nc(N)nc2nc[nH]c12 [NU2052, 2-amino-6-n-butoxypurine] | 30 µM |  |
| CC1(C)OCC(COc2nc(N)nc3[nH]cnc23)O1 (stereo not shown) [NU6021, O^6-(2,2-Dimethyl-1,3-dioxolane-4-methoxy)guanine] |  | inhibition at 100 µM (CDK2; [1]): 35 ± 6%; % inhibition CDK1 (CDK1 (p34 cdc2)/cyclin B): 36 ± 9% |
| Nc1nc(OCC2COC3(CCCCC3)O2)c2nc[nH]c2n1 (stereo not shown) [NU6022, O^6-(1,4-Dioxaspiro[4.5]decane-2-methoxy)guanine] |  | inhibition at 100 µM (CDK2; [1]): 27 ± 4%; % inhibition CDK1 (CDK1 (p34 cdc2)/cyclin B): 26 ± 6% |
| CC1(C)OC[C@@H](COc2nc(N)nc3[nH]cnc23)O1 [NU6024, 2-amino-6-[(R)-2',2'-dimethyl-1',3'-dioxolane-5'-methyl]oxypurine] |  | inhibition at 100 µM (CDK2; [2]): 38 ± 3%; % inhibition CDK1 (CDK1 (p34 cdc2)/cyclin B): 50 ± 1% |
| CC1(C)OC[C@H](COc2nc(N)nc3[nH]cnc23)O1 [NU6025, 2-amino-6-[(S)-2',2'-dimethyl-1',3'-dioxolane-5'-methyl]oxypurine] |  | inhibition at 100 µM (CDK2; [1]): 28 ± 4%; % inhibition CDK1 (CDK1 (p34 cdc2)/cyclin B): 34 ± 2% |
| Nc1nc(OCc2cccnc2)c2nc[nH]c2n1 [NU6029, 2-Amino-6-(3'-pyridyl)methyloxypurine] |  | inhibition at 100 µM (CDK2; [2]): 43 ± 4%; % inhibition CDK1 (CDK1 (p34 cdc2)/cyclin B): 56 ± 4% |
| Nc1nc(N)c(N)c(OCC2CCCCC2)n1 [NU6035, 2,5,6-triamino-4(cyclohexylmethoxy)-pyrimidine] |  | inhibition at 100 µM (CDK2; [1]): 54 ± 8%; % inhibition CDK1 (CDK1 (p34 cdc2)/cyclin B): 40 ± 4% |
| Nc1cc(OCc2ccccc2)nc(N)n1 [NU6038] |  | inhibition at 100 µM (CDK2; [2]): 0%; % inhibition CDK1 (CDK1 (p34 cdc2)/cyclin B): 3 ± 3% |
| Nc1nc(N)c(N=O)c(OCc2ccccc2)n1 [NU6039, 2,6-diamino-4-(benzylmethoxy) 5-nitrosopyrimidine] |  | inhibition at 100 µM (CDK2; [1]): 51 ± 2%; % inhibition CDK1 (CDK1 (p34 cdc2)/cyclin B): 54 ± 9% |
| Nc1nc(N)c(N)c(OCc2ccccc2)n1 [NU6040, 2,5,6-triamino-4-(benzylmethoxy) pyrimidine] |  | inhibition at 100 µM (CDK2; [2]): 6 ± 10% |
| CNc1cc(Cl)nc(N)n1 [NU6042, 2-amino-4-chloro-6-methylamino pyrimidine] |  | inhibition at 100 µM (CDK2; [2]): 14 ± 24% |
| Nc1nc(OCc2ccccc2)c2[nH]c(=O)[nH]c2n1 [NU6043, 2-Amino-6-benzyl-8-oxoguanine] |  | inhibition at 100 µM (CDK2; [2]): 8 ± 13%; % inhibition CDK1 (CDK1 (p34 cdc2)/cyclin B): 13 ± 9% |
| Nc1cc(OCC2CC=CCC2)nc(N)n1 (stereo not shown) [NU6046] |  | inhibition at 100 µM (CDK2; [1]): 8 ± 1%; % inhibition CDK1 (CDK1 (p34 cdc2)/cyclin B): 16 ± 13% |

More lines, main results first:

| IC50 (CDK1 (p34 cdc2)/cyclin B) | SMILES | also measured |
| --- | --- | --- |
| > 100 µM | COCC(COc1nc(N)nc2nc[nH]c12)OC (stereo not shown) [NU2044, 2-amino-6-(2,3-dimethoy)propoxypurine] |  |
| 50 µM | CCCOc1nc(N)nc2nc[nH]c12 [NU2045, 2-amino-6-propoxypurine] |  |
| 100 µM | CCOc1nc(N)nc2nc[nH]c12 [NU2046, 2-amino-6-ethoxypurine] |  |
| 22 µM | C=CCOc1nc(N(C)C)nc2nc[nH]c12 [NU2048, 2-(N,N-dimethyl)amino-6-allyloxypurine] |  |
| > 100 µM | CCC(COc1nc(N)nc2[nH]cnc12)(OC)OC [NU2050, 2-amino-6-(2,2-dimethoxy) butyloxypurine] |  |
| 400 µM | C=CCOc1nc(Cl)nc2nc[nH]c12 [NU2051, 6-allyloxy-2-chloropurine] | effect of side chain at N9 or N7, or halo at C2, on activity (CDK1 (p34 cdc2)/cyclin B): activity drastically diminishes |
| 18 µM | CC(C)CCOc1nc(N)nc2nc[nH]c12 [NU2053, O^6-(3'-Methyl)butylguanine] | IC50 (CDK4): 70 µM |
| 20 µM | C=C(CC)COc1nc(N)nc2[nH]cnc12 [NU2054, O^6-(2-Ethylallyl)guanine] |  |
| 13 µM | C=C(COc1nc(N)nc2[nH]cnc12)C(C)C [NU2055, O^6-(2-Isopropylallyl)guanine] |  |
| 105 µM | CC(C)C1(COc2nc(N)nc3[nH]cnc23)OCCO1 [NU2057, O^6-(3-Methyl-2-oxobutyl)guanine ethylene acetal] |  |
| 12 µM | C=CCCCCOc1nc(N)nc2[nH]cnc12 [NU2061, O^6-(5'-Hexenyl)guanine] |  |
| 31 µM | CCCCCCCOc1nc(N)nc2nc[nH]c12 [NU2064, 2-amino-6-heptyloxypurine] |  |
| 38 µM | CC/C=C/CCOc1nc(N)nc2[nH]cnc12 [NU2067, O^6-(trans-3'-Hexenyl)guanine] |  |
| 30 µM | Nc1nc(OCC2CCCC2)c2nc[nH]c2n1 [NU2068, O^6 -(Cyclopentyl)methylguanine] | IC50 (CDK4): 34 µM |
| 7 µM | Nc1nc(OCC2=CCCC2)c2nc[nH]c2n1 [NU2074, O^6-(1'-Cyclopentenyl)methylguanine] |  |
| 8 µM | Nc1nc(OCC2=CCCCC2)c2nc[nH]c2n1 [NU2076, O^6-(1'-Cyclohexenyl)methylguanine] |  |
| > 100 µM | COC(COc1nc(N)nc2[nH]cnc12)(OC)c1ccccc1 [NU2081, 2-amino-6-(2,2-dimethoxy)-2-phenylethyloxypurine] |  |

— patent US6303618A, “Cyclin dependent kinase inhibiting purine derivatives” (priority 1997, dated 2001)
